# Laboratory results from patent publication US12370239B2, “Microvascular blood flow decreasing agent and use thereof” (priority 2016, dated 2025).
# “Also recorded” adds a separate entry of the source.
# Experiments:
# Format in all cases: in vivo, human
# tumor = assay: Endovascular therapy case reports, tumor response (Example 3); parameters: key: CR indicates an elimination of tumor from the imaging; PR indicates >50% reduction of tumor diameter; MR indicates >30% reduction of tumor diameter; NC indicates <30% reduction of tumor diameter; PD indicates an increase in tumor diameter
# Method: Short-term tumor-reducing effect in 1 month after the administration was assessed by MRI or CT imaging. In the table, CR indicates an elimination of tumor from the imaging, PR indicates >50% reduction of tumor diameter, MR indicates >30% reduction of tumor diameter, NC indicates <30% reduction of tumor diameter, and PD indicates an increase in tumor diameter.
# To Patient A who had suffered from breast cancer, an endovascular therapy was carried out using nivolumab 10 mg, pertuzumab 60 mg, bortezomib 0.7 mg, thrombomodulin 3200 U and maxacalcitol 10 μg. This patient was marked as CR by such treatment.
# To Patient B who had suffered from malignant fibrous histiocytoma in right femur, an endovascular therapy was carried out using 20 mg of nivolumab. This patient was marked as CR after 3 treatments using 20 mg of nivolumab per each administration.
# To Patience C who had suffered from hepatitis C and had developed liver cancer, an endovascular therapy was carried out using nivolumab 10 mg, bortezomib 0.7 mg, etanercept 25 mg, maxacalcitol 10 μg and imipenem/cilastatin sodium 500 mg/body for each administration. This patient was marked as CR after two treatments.
# (§1) This patient was subjected to an endovascular therapy using nivolumab 10 mg, bortezomib 0.7 mg, etanercept 25 mg, maxacalcitol 10 μg, and thrombomodulin 3200 U, and was marked as CR by such treatment. […] FIG. 4 is a graph showing the transition of % IS of BCR-ABL mRNA before and after the endovascular therapy for the […] in this patient.
# BCR-ABL mRNA = assay: % IS of BCR-ABL mRNA, marker for chronic myeloid leukemia, before and after endovascular therapy; details: Patient D, after endovascular therapy for bladder cancer (time point 2 to 3, FIG. 4)
# Method: as §1
# microvasculature = assay: Contrast imaging of microvascular blood flow / vessel density after infusion
# Method: When it is used for decreasing microvascular blood flow according to the present invention, the dose of the immune checkpoint inhibitor to be administered will vary depending on the type of the immune checkpoint inhibitor to be administered, though a skilled person can calculate an appropriate amount.
# It was shown that each of the immune checkpoint inhibitors causes a clear change in tumor hemodynamics by single-agent administration 2 to 3 minutes after the infusion from the tumor vessel. Moreover, an immediate relief from cancerous pain by administration is also confirmed. Adding to these, their original effect of inhibiting immune checkpoint can also be expected, providing a prospective of relatively longer lasting effect by administration of single agent.
# In all cases, fat suppression T2-weighted MRI image was obtained before treatment to select target vessels. 3Fr intraarterial-indwelling sheath (Medikit Co., Ltd.) was inserted from femoral artery by Seldinger method, allowed to reach the target vessel using 3Fr angiography catheter (Medikit Co., Ltd.), Radifocus 0.032″ external diameter guide wire (TERUMO Corp.), and microcatheter ASAHI Tellus C3, ASAHI Meister 0.016″ micro guide wire (ASAHI INTECC Co., Ltd.) as appropriate, then abnormal vascular networks are identified by contrast imaging. […]
# [1] = tested on: blood vessels at a site having prolonged pain; assay: Endovascular therapy to blood vessels at a site having prolonged pain, symptom improvement and side effects (Example 4); parameters: key to Effect (improvement in symptoms): an exacerbation in symptom=0; no change=1; an improvement in symptom and easiness in dairy living=2; almost satisfactory improvement=3; Side effect: scale not given here
# Method: To 14 subject cases indicated in the table below who had blood vessels at a site having prolonged pain, endovascular therapy was carried out as follows, using pembrolizumab.
# In all cases, fat suppression T2-weighted MRI image was obtained before treatment to select target vessels. 3Fr intraarterial-indwelling sheath (Medikit Co., Ltd.) was inserted from femoral artery by Seldinger method, allowed to reach the target vessel using 3Fr angiography catheter (Medikit Co., Ltd.), Radifocus 0.032″ external diameter guide wire (TERUMO Corp.), and microcatheter ASAHI Tellus C3, ASAHI Meister 0.016″ micro guide wire (ASAHI INTECC Co., Ltd.) as appropriate, then abnormal vascular networks are identified by contrast imaging.
# Subsequently, as shown in the table, pembrolizumab 1 to 4 mg/body (mean=1.86 mg/body, median=2 mg/body) was mixed with the combined drugs in 100 ml of physiological saline, stirred with a stirrer while being infused into the target vessel in an amount such that a sufficient decrease in abnormal vessel density was confirmed.
# The level of post-treatment improvement in symptoms was assessed after 3 weeks or longer. A stepwise assessment was done as follows: an exacerbation in symptom=0, no change=1, an improvement in symptom and easiness in dairy living=2, almost satisfactory improvement=3.
substance,measurement,setting,value
nivolumab,tumor response,"tumor; Patient A, breast cancer, nivolumab 10 mg with pertuzumab 60 mg, bortezomib 0.7 mg, thrombomodulin 3200 U, maxacalcitol 10 μg",CR
same,tumor response,"tumor; Patient B, malignant fibrous histiocytoma in right femur (metastasis to lung), after 3 treatments, 20 mg of nivolumab per administration",CR
same,tumor response,"tumor; Patient C, liver cancer (hepatitis C), stage II, after two treatments, nivolumab 10 mg with bortezomib 0.7 mg, etanercept 25 mg, maxacalcitol 10 μg, imipenem/cilastatin sodium 500 mg/body",CR
same,tumor response,"tumor; Patient D, bladder cancer (chronic myeloid leukemia), stage II, nivolumab 10 mg with bortezomib 0.7 mg, etanercept 25 mg, maxacalcitol 10 μg, thrombomodulin 3200 U",CR
same,% IS of BCR-ABL mRNA,BCR-ABL mRNA,decreased
pembrolizumab,abnormal microvascular density,"microvasculature; Cases 7 and 8, 2 minutes after drug administration (FIGS. 5 and 6)",significant decrease in abnormal microvascular density
same,Side effect,"[1]; Case 1, Left gonarthritis, P 1 mg/body + imp/cs 500, bv 50, bort 0.35, maxa 10",0
same,Effect (improvement in symptoms),"[1]; Case 1, Left gonarthritis, P 1 mg/body + imp/cs 500, bv 50, bort 0.35, maxa 10, after 3 weeks or longer",1
same,Effect (improvement in symptoms),"[1]; Case 2, Elbow joint RA 5 y, P 4 mg/body + eta 25, bort 0.35, imp/cs 500, after 3 weeks or longer",3
same,Side effect,"[1]; Case 2, Elbow joint RA, P 4 mg/body + eta 25, bort 0.35, imp/cs 500",0
same,Effect (improvement in symptoms),"[1]; Case 3, Hip osteoarthritis 5 y, P 3 mg/body + eta 25, bort 0.35, maxa 10, imp/cs 501, after 3 weeks or longer",3
same,Side effect,"[1]; Case 3, Hip osteoarthritis, P 3 mg/body + eta 25, bort 0.35, maxa 10, imp/cs 501",0
same,Side effect,"[1]; Case 4, Left shoulder pain, P 3 mg/body + bort 0.35",0
same,Effect (improvement in symptoms),"[1]; Case 4, Left shoulder pain, P 3 mg/body + bort 0.35, after 3 weeks or longer",3
same,Effect (improvement in symptoms),"[1]; Case 5, Lumbar spinal stenosis 5 y, P 2 mg/body + bort 0.36, after 3 weeks or longer",2
same,Side effect,"[1]; Case 5, Lumbar spinal stenosis, P 2 mg/body + bort 0.36",0
same,Side effect,"[1]; Case 6, Right foot Lisfranc joint injury, P 1 mg/body + bv 50, bort 0.35, eta 25, maxa 10",0
same,Effect (improvement in symptoms),"[1]; Case 6, Right foot Lisfranc joint injury, P 1 mg/body + bv 50, bort 0.35, eta 25, maxa 10, after 3 weeks or longer",3
same,Effect (improvement in symptoms),"[1]; Case 7, Low back pain after spinal compression fracture 1.5 y, P 1 mg/body + bort 0.35, eta 25, maxa 10, reco 3200, after 3 weeks or longer",2
same,Side effect,"[1]; Case 7, Low back pain after spinal compression fracture, P 1 mg/body + bort 0.35, eta 25, maxa 10, reco 3200",0
same,Effect (improvement in symptoms),"[1]; Case 8, Right knee RA 3.8 y, P 2 mg/body + bort 0.35, eta 25, reco 3200, after 3 weeks or longer",2
same,Side effect,"[1]; Case 8, Right knee RA, P 2 mg/body + bort 0.35, eta 25, reco 3200",0
same,Effect (improvement in symptoms),"[1]; Case 9, Bilateral knee joint replacement postoperation 1.5 y, P 2 mg/body + eta 25, imp/cs 500, after 3 weeks or longer",1
same,Side effect,"[1]; Case 9, Bilateral knee joint replacement postoperation, P 2 mg/body + eta 25, imp/cs 500",0
same,Side effect,"[1]; Case 10, Piriformis syndrome, P 1 mg/body + bort 0.35, eta 25, reco 3200",0
same,Effect (improvement in symptoms),"[1]; Case 10, Piriformis syndrome, P 1 mg/body + bort 0.35, eta 25, reco 3200, after 3 weeks or longer",2
same,Side effect,"[1]; Case 11, Left Achilles peritendinitis, P 1 mg/body",0
same,Effect (improvement in symptoms),"[1]; Case 11, Left Achilles peritendinitis, P 1 mg/body, no combined drug printed, after 3 weeks or longer",3
same,Side effect,"[1]; Case 12, Bilateral gonarthrosis, P 2 mg/body",0
same,Effect (improvement in symptoms),"[1]; Case 12, Bilateral gonarthrosis, P 2 mg/body, no combined drug printed, after 3 weeks or longer",2
same,Side effect,"[1]; Case 13, Left gonarthrosis, foot arthritis, P 2 mg/body",0
same,Effect (improvement in symptoms),"[1]; Case 13, Left gonarthrosis, foot arthritis, P 2 mg/body, no combined drug printed, after 3 weeks or longer",1
same,Side effect,"[1]; Case 14, Right foot joint MFP syndrome, P 1 mg/body",0
same,Effect (improvement in symptoms),"[1]; Case 14, Right foot joint MFP syndrome, P 1 mg/body, no combined drug printed, after 3 weeks or longer",2
same,side effects considered to be caused by the therapy,"[1]; all 14 cases, including minor side effects such as transient fever",No side effect; also recorded: without any side effects
same,cases with rating of 2 or more (improvement in symptom),"[1]; out of 14 cases, pembrolizumab 1 to 4 mg/body into target vessel, after 3 weeks or longer",11
same,chronic pain,"[1]; selective arterial infusion to the site of pain, 1 to 2 mg/body, diluted at 1 to 2% in physiological saline",cancellation of chronic pain
ipilimumab,tumor vessel density-decreasing effect,"microvasculature; by itself, injection into nutrient artery",strong tumor vessel density-decreasing effect
